The record followed here is article PMC1919488 (Nucleic Acids Research, 2007).

Numbering of substitutions follows the chain as printed. Like-named read-outs stand apart in the source and are kept apart here.

Experiment [1] addresses T1, Rad51 (Saccharomyces cerevisiae, UniProt P25454, K191R).
T1 sequence (P25454 1-400 K191R): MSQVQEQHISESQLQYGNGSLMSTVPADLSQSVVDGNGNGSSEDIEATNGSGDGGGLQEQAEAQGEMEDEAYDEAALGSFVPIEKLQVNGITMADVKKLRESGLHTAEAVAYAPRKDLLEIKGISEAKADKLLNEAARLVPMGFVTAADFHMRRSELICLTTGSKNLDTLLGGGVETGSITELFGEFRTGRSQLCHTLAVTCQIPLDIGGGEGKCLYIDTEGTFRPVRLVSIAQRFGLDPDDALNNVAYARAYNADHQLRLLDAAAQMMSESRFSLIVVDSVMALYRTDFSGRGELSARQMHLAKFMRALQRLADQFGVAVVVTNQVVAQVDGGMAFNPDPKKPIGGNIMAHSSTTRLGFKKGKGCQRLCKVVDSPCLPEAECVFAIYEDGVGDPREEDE
In kind it is binding.

The target of experiment [2] is T2, Rad51 (Saccharomyces cerevisiae, UniProt P25454).
T2 sequence (P25454 1-400): T1 sequence (P25454 1-400 K191R) with R191K
In kind it is binding.

The target in experiment [3] is T3, Rad51 (Saccharomyces cerevisiae, UniProt P25454, K191A).
T3 sequence (P25454 1-400 K191A): T1 sequence (P25454 1-400 K191R) with R191A
The experiment is classed as binding.

The target in experiment [4] is T2, Rad51. Put plainly: biochemical.
In experiment [5] the target is T1, Rad51. Put plainly: biochemical.
Experiment [6] concerns the target T3, Rad51. Put plainly: biochemical.

As for `[N-]=[N+]=Nc1nc2c(N)ncnc2n1[C@@H]1O[C@H](COP(=O)(O)OP(=O)(O)OP(=O)(O)O)[C@@H](O)[C@H]1O` [8-Azido-ATP], the equilibrium dissociation constant (Kd) on Rad51 [1] was 26.9 ± 10.3 µM; at Rad51 [2] it was 10.2 ± 5.1 µM; at Rad51 [3] it was 73.7 ± 35.6 µM.
For the molecule `Nc1ncnc2c1ncn2[C@@H]1O[C@H](COP(=O)(O)OP(=O)(O)OP(=O)(O)O)[C@@H](O)[C@H]1O` [ATP], the Kd was found to be 8.8 ± 4.5 µM on Rad51 [4], 52.5 ± 18.2 µM at Rad51 [5] and 34.2 ± 25.8 µM on Rad51 [6].

As usually defined, the Kd is the concentration at which binding is half-saturated. A high value points to lower affinity.
